According to US20250304623A1, “PEPTIDES FOR INTRACELLULAR DELIVERY” (UNIVERSIDADE DE SANTIAGO DE COMPOSTELA, priority 2022, published 2025):
*: point of attachment. NHNH2 = NN*

Assays:
Type in all cases: cell-based
HCT116 cells = test: EGFP mRNA delivery, robotic library screening, HCT116
Description: (§1) Cells were seeded in a 96 well plate the day before the experiment at a concentration of 50,000 cell/mL (100 μL/w) in DMEM+10% FBS+1% Gln-Abt. For robotic library screening, the delivery of EGFP-mRNA (from TriLink, fully substituted with 5-methoxyuridine, capped and polyadenylated; TriLink, CleanCap® EGFP mRNA (5moU), ref. L-7201) in six different cell lines was performed. Amphiphilic molecule stock solutions were prepared in DMSO as described above and diluted in DMEM to afford a range of concentrations. The solutions of EGFP-mRNA/amphiphilic molecule complexes were freshly prepared prior to the transfection experiments. 35 μL of the corresponding amphiphile were added to 10 μL of a solution of EGFP-mRNA at 10 ng/μL in DMEM. The mixture was shaken for 30 min at room temperature before the addition to the cells. The cell medium was aspirated, and cells were washed with PBS twice. Cells were covered with 39 μL of DMEM and 11 μL of the complex's solution were added to the cells and incubated for 4 h (final concentration of peptide=2.5, 5 and 10 μM; final concentration of EGFP-mRNA=25 ng/well). After the incubation, the medium was replaced by 100 μL of fresh DMEM supplemented with 10% FBS. The total EGFP fluorescence was quantified after 72 h in a well plate reader. Amphiphile transfection efficiency was compared and normalized to Lipofectamine® MessengerMax efficiency (value of 1 in Tables 1-5 and 7; double underlined numbers). All experiments were done in triplicate.
(§2) Tables 1-7: RLuc (pDNA) or EGFP (mRNA) expression levels were normalized to Lipofectamine reagents (value=1) and expressed as fold-times signal increase. In the case of siRNA, the siRNA treated cells fluorescence was compared with siMOCK control fluorescence, while Cas9-RNP mediated knockout was measured against the fluorescence of untreated cells. In both siRNA and Cas9-RNP, values are expressed as % fluorescence reduction. Amphiphile concentration was 5 μM in all cases. All experiments were performed in triplicate.
(§3) Tables 14-19 show the mean (triplicates) fluorescence intensity measured after the transfection of EGFP mRNA by different amphiphiles at different concentrations in a variety of cell lines. Background fluorescence values, accounted by untreated control cells, were subtracted for processing.

A549 cells = test: EGFP mRNA delivery, robotic library screening, A549
Description: as §1, §2, §3

[1] = test system: Hek293 cells expressing EGFP; test: Cas9-RNP delivery against EGFP (gene editing, plate reader), Hek293
Description: To generate an EGFP expressing HeLa cell line, HeLa cells were transfected with EGFP pDNA (pEGFP-C1, Clontech) and stable transfectants were selected with 400 μg/mL of G-418 (Millipore). Green clones were selected by epifluorescence microscopy and tested for EGFP expression stability through several passages. […] All other EGFP-expressing cell lines were obtained in a similar way from parent non-EGFP-expressing cell lines.
Cells expressing EGFP were seeded in a 96 well plate the day before the experiment at a concentration of 50,000 cell/mL (100 μL/w) in DMEM+10% FBS+1% Gln-Abt. For robotic library screening, the delivery of Cas9-RNP against EGFP (RNP designed to knock-out the gene encoding for the enhanced green fluorescent protein (EGFP)) was performed. For RNP assembly, 9.2 μL of crRNA and 9.2 μL of tracrRNA were mixed in 211.6 μL of Nuclease-Free Duplex Buffer (IDT), incubated for 5 min at 95° C. and slowly cooled at rt (see I. Lostalé-Seijo, et al. Peptide/Cas9 nanostructures for ribonucleoprotein cell membrane transport and gene edition, Chem. Sci., 2017). Cas9 protein was dissolved in DMEM at a final concentration of 4 μM and equal volumes of the RNA complex and Cas9 were mixed and incubated for 5 min at rt. 75 μL of the corresponding amphiphile concentrations were added to 5 μL of RNP at 2 μM. The mixture was shaken for 30 min at room temperature before the addition to the cells. The cell medium was aspirated, and cells were washed twice with PBS. Cells were covered with 30 μL of DMEM and 20 μL of the RNP/amphiphile complexes were added to the cells (final peptide concentrations=2.5, 5 and 10 μM; final Cas9-RNP concentration=50 nM) and incubated for 4 h. After the incubation, the medium was replaced by 100 μL of fresh DMEM supplemented with 10% FBS. The total EGFP fluorescence was quantified after 72 h in a plate reader (FIG. 2, Table 1 (right) and Table 6). All experiments were done in triplicate. […]
Tables 26-31 show the mean (triplicates) percentage of gene editing, accounted by GFP fluorescence intensity decrease (% of reduction), measured after the transfection of Cas9-RNP by different amphiphiles at different concentrations in a variety of cell lines. Background values, accounted by untreated control cells, were subtracted for processing.

Hek293 cells = test: EGFP mRNA delivery, robotic library screening, Hek293
Description: as §1, §2, §3

## Ac-RK*LRK*K*L-NH2 (Ac-RK(NHNH2)LRK(NHNH2)K(NHNH2)L-NH2; not fully specified; printed as Ac-RK*LRK*K*L-NH2; also: K*2,K*5,K*6: native or modified lysine (ε-amide to a linker)) [Peptide 7.3]
HCT116 cells; Dodecanal, 2.5 μM
  mean fluorescence intensity (EGFP mRNA): 5668
HCT116 cells; Dodecanal, 5 μM
  mean fluorescence intensity (EGFP mRNA): 6749
HCT116 cells; Dodecanal, 10 μM
  mean fluorescence intensity (EGFP mRNA): 1139
HCT116 cells; Myristoleyl, 2.5 μM
  mean fluorescence intensity (EGFP mRNA): 35826
HCT116 cells; Myristoleyl, 5 μM
  mean fluorescence intensity (EGFP mRNA): 2060
HCT116 cells; Petroselinyl, 2.5 μM
  mean fluorescence intensity (EGFP mRNA): 6670
HCT116 cells; Petroselinyl, 5 μM
  mean fluorescence intensity (EGFP mRNA): 1464
HCT116 cells; Petroselinyl, 10 μM
  mean fluorescence intensity (EGFP mRNA): 1093
A549 cells; Dodecanal, 2.5 μM
  mean fluorescence intensity (EGFP mRNA): 2894
A549 cells; Dodecanal, 5 μM
  mean fluorescence intensity (EGFP mRNA): 4662
A549 cells; Dodecanal, 10 μM
  mean fluorescence intensity (EGFP mRNA): 248
A549 cells; Myristoleyl, 2.5 μM
  mean fluorescence intensity (EGFP mRNA): 4491
A549 cells; Myristoleyl, 5 μM
  mean fluorescence intensity (EGFP mRNA): 5378
A549 cells; Myristoleyl, 10 μM
  mean fluorescence intensity (EGFP mRNA): 228
A549 cells; Oleyl, 2.5 μM
  mean fluorescence intensity (EGFP mRNA): 218
A549 cells; Oleyl, 5 μM
  mean fluorescence intensity (EGFP mRNA): 1205
A549 cells; Oleyl, 10 μM
  mean fluorescence intensity (EGFP mRNA): 1046
A549 cells; Palmitoleyl, 2.5 μM
  mean fluorescence intensity (EGFP mRNA): 2134
A549 cells; Palmitoleyl, 5 μM
  mean fluorescence intensity (EGFP mRNA): 3484
A549 cells; Petroselinyl, 2.5 μM
  mean fluorescence intensity (EGFP mRNA): 1317
A549 cells; Petroselinyl, 5 μM
  mean fluorescence intensity (EGFP mRNA): 6947
A549 cells; Petroselinyl, 10 μM
  mean fluorescence intensity (EGFP mRNA): 641
[1]; Dodecanal, 5 μM
  percentage of gene editing, GFP fluorescence intensity decrease (% of reduction): −11%
[1]; Dodecanal, 15 μM
  percentage of gene editing, GFP fluorescence intensity decrease (% of reduction): −15%
[1]; Myristoleyl, 5 μM
  percentage of gene editing, GFP fluorescence intensity decrease (% of reduction): −20%
[1]; Oleyl, 10 μM
  percentage of gene editing, GFP fluorescence intensity decrease (% of reduction): −34%
[1]; Palmitoleyl, 5 μM
  percentage of gene editing, GFP fluorescence intensity decrease (% of reduction): 23%
[1]; Palmitoleyl, 10 μM
  percentage of gene editing, GFP fluorescence intensity decrease (% of reduction): −1%
[1]; Palmitoleyl, 15 μM
  percentage of gene editing, GFP fluorescence intensity decrease (% of reduction): 3%
[1]; Petroselinyl, 5 μM
  percentage of gene editing, GFP fluorescence intensity decrease (% of reduction): 29%
[1]; Petroselinyl, 10 μM
  percentage of gene editing, GFP fluorescence intensity decrease (% of reduction): 34%
[1]; Petroselinyl, 15 μM
  percentage of gene editing, GFP fluorescence intensity decrease (% of reduction): 23%
Hek293 cells; Dodecanal, 2.5 μM
  mean fluorescence intensity (EGFP mRNA): 9114
Hek293 cells; Dodecanal, 5 μM
  mean fluorescence intensity (EGFP mRNA): 17096
Hek293 cells; Dodecanal, 10 μM
  mean fluorescence intensity (EGFP mRNA): 2056
Hek293 cells; Myristoleyl, 2.5 μM
  mean fluorescence intensity (EGFP mRNA): 11081
Hek293 cells; Myristoleyl, 5 μM
  mean fluorescence intensity (EGFP mRNA): 2907
Hek293 cells; Myristoleyl, 10 μM
  mean fluorescence intensity (EGFP mRNA): 982
Hek293 cells; Oleyl, 2.5 μM
  mean fluorescence intensity (EGFP mRNA): 3452
Hek293 cells; Oleyl, 5 μM
  mean fluorescence intensity (EGFP mRNA): 1414
Hek293 cells; Oleyl, 10 μM
  mean fluorescence intensity (EGFP mRNA): 805
Hek293 cells; Palmitoleyl, 2.5 μM
  mean fluorescence intensity (EGFP mRNA): 4120
Hek293 cells; Petroselinyl, 2.5 μM
  mean fluorescence intensity (EGFP mRNA): 9200
Hek293 cells; Petroselinyl, 5 μM
  mean fluorescence intensity (EGFP mRNA): 8731
Hek293 cells; Petroselinyl, 10 μM
  mean fluorescence intensity (EGFP mRNA): 476
